In this assay the target is T1, MER (Homo sapiens, UniProt Q12866).
T1 sequence (Q12866 21-999): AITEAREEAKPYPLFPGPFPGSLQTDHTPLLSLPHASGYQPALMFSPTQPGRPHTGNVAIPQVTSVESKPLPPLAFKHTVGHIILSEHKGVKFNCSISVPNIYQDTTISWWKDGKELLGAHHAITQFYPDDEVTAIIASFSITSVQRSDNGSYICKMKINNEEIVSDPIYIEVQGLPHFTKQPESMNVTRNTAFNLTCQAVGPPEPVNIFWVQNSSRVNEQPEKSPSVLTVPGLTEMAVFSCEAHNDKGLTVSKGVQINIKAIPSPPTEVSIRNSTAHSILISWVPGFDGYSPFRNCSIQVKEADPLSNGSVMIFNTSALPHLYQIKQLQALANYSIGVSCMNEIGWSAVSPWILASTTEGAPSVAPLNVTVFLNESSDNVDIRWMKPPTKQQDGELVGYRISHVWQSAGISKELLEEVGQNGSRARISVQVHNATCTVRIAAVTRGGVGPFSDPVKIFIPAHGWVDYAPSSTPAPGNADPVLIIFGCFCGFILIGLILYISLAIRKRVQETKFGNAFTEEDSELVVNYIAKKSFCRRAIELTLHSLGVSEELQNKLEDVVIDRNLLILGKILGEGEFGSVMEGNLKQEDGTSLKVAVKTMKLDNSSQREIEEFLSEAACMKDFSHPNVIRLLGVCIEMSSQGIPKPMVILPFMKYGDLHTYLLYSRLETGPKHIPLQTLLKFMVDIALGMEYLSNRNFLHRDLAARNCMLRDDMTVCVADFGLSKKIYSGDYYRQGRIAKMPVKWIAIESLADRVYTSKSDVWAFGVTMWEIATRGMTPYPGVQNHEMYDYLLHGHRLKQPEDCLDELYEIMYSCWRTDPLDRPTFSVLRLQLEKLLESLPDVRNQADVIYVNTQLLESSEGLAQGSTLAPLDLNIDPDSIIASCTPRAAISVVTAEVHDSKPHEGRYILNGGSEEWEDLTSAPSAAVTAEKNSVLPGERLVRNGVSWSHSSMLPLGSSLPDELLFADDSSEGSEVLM
The experiment in a line: Inhibition of MER kinase activity in primary macrophages (Western blot). The assay is classed as cell-based. Particulars: primary macrophages from human PBMCs, 2 hours pretreatment, MAB8912 stimulation, N=2 (FIG. 4); read-out: IC50, pMER inhibition. As for the experimental part: The ability of Compound 1 to modulate the activity of MER kinase in macrophages was evaluated.
Human peripheral blood mononuclear cells (PBMCs) were separated using Ficoll-Paque density gradient centrifugation and any remaining red blood cells (RBC) were lysed using 1×RBC Lysis Buffer (Cell Signaling Technology) for 5 minutes at room temperature. The PBMCs were washed with PBS before being enriched for monocytes using CD14 microbeads positive selection separation following the manufacturer's protocol as specified (AutoMacs Pro, Miltenyi Biotec, Bergisch Gladbach, Germany). […]
Macrophages were allowed to thaw on ice before being lysed with 250 μL/well of 1× Lysis Buffer (Cell Signaling Technology; #9803) and Halt protease and phosphatase inhibitors (ThermoFisher Scientific) for 1 hour at 4° C. […] Protein lysates were quantified using BCA Protein Assay Kit (Pierce, ThermoFisher Scientific; #23225). […] The membranes were washed again before the bands were detected with SuperSignal West Dura Extended Duration Chemiluminescent substrate (ThermoFisher Scientific) and were visualized using the Fluorochem M Digital Imager (Protein Simple, San Jose, Calif.).

Usually IC50 stands for the point on the concentration scale where inhibition reaches its midpoint. Consider `CC(C)C(=O)N1CCC(c2cc(-c3ccc(NC(=O)c4cn(C(C)C)c(=O)n(-c5ccccn5)c4=O)cc3)c3c(N)ncnn23)CC1` [Compound 1, N-(4-(4-Amino-7-(1-isobutyrylpiperidin-4-yl)pyrrolo[1,2-f][1,2,4]triazin-5-yl)phenyl)-1-isopropyl-2,4-dioxo-3-(pyridin-2-yl)-1,2,3,4-tetrahydropyrimidine-5-carboxamide], for which the 50% inhibitory concentration (IC50) stood at 1.6 ± 0.4 nM.

The values above are taken from patent US12214036B2, “Combination therapy comprising AXL/MER and PD-1/PD-L1 inhibitors” (Incyte Corporation, priority 2020, dated 2025).
